Legend:
HepG2 cells = experiment: HepG2 cytotoxicity assay; type: cell-based, human; settings: for Selectivity: EC50 HepG2 divided by EC50 T. b. brucei parasite killing; for EC50: Homo sapiens, HepG2, 72 h, CellTitreGlo
Experimental: (§1) A HepG2 cytotoxicity assay was used to determine a cellular selectivity index. HepG2 cells were seeded into 96-well plates in EMEM medium. Compounds were assessed for their effect upon cellular viability (Supplementary Methods 5.1). Inhibition of CYP450 was determined using kits from BD Biosciences (Supplementary Methods 5.2). Metabolic stability was determined using mouse […] tested at a single concentration of 5 µM. Plasma protein binding was determined using mouse and human plasma at a single concentration of 10 µM (Supplementary Methods 5.4). All PK studies in mice were carried out by Pharmidex (Supplementary Methods 6.1).
To determine a cellular selectivity index, a HepG2 Cytotoxicity Assay was used. HepG2 cells (a human hepatocyte carcinoma cell line) were seeded into 96 well plates in EMEM media. Compounds were assessed for their effect upon cellular viability (6 point dose response curves). After 72h the numbers of viable cells were detected using Promega CellTitreGlo reagent to measure ATP using the luciferase/luciferin detection system. The selectivity index is calculated as the EC50 in the HepG2 assay divided by the EC50 determined in the T. b. brucei parasite killing assay.

[1] = Metabolic stability, human liver microsomes; type: in vitro ADME; settings: read-out: HLM Clint
Experimental: as §1
Compounds were tested for their metabolic stability using mouse and human liver microsomes (MLM and HLM). The compounds were tested at a single concentration of 5 µM. The samples were crashed with acetonitrile and put through protein precipitation plates. The eluent was analysed by LC/MS or LC/MS/MS.

[2] = Plasma protein binding, human plasma; type: in vitro ADME; settings: equilibrium dialysis, read-out: Human plasma protein binding fu(%)
Experimental: as §1
Compounds were tested for protein binding using mouse and human plasma at a single concentration of 10 µM and measured by equilibrium dialysis between plasma and buffer. The amount of parent was determined on both sides of the membrane after incubating for 4 hours at 37 °C. The samples were crashed with acetonitrile and put through protein precipitation plates. The eluent was analysed by LC/MS or LC/MS/MS. Output was percentage bound.

[3] = Tolerance studies and plasma levels after multiple oral dosing; type: in vivo; settings: for Experimental plasma concentration measured @2hr after final dose: 2 h intervals; for tolerance of high doses: mice, oral
Experimental: All efficacy studies were carried out using CD-1 mice in accordance with the United Kingdom Animals (Scientific Procedures) Act (1986) under Home Office regulations. Studies were performed in SPF facilities at the University of Edinburgh under licence PPL 70/8102 and at the University of Glasgow under PPL 60/4442. The experiments were approved by the local ethics committees of the respective universities. Dosing regimens used in efficacy studies were first tested for tolerance in female CD-1 mice (University of Edinburgh; 6–8 weeks old). Animals were dosed orally by gavage with CTCB compounds following the dosing regimen for each individual experiment (n = 5; Supplementary Methods 6.2).
Dosing regimens used in efficacy studies were first tested for tolerance in female CD-1 mice (University of Edinburgh; 6-8 weeks old). Animals were dosed orally by gavage with CTCB compounds following the dosing regimen for each individual experiment (n=5) as indicated. Compounds were administered in a mixture containing Cremophor EL: EtOH: D-PBS (30:10:60 v/v). Animals were monitored for up to 8 hours post-dosing. On the final day of dosing, 2 hours after the final dose, whole blood was harvested from three mice via cardiac puncture, under gaseous isoflurane anaesthesia, to obtain plasma for analyses. The remaining two mice were monitored for several days post dosing. To avoid coagulation, 100 μl of 2% sodium citrate was utilised in the syringe during the procedure and blood samples subsequently transferred to heparin coated microtubules. Blood samples were centrifuged at 800 x g for 10 minutes at room temperature. The supernatant containing the plasma was transferred to a fresh tube for determination of compound levels and further PK analysis.

| Structure (SMILES) | Selectivity (HepG2 cells) | EC50 (HepG2 cells) [µM] | microsomal CLint at 5 µM [1] [µL/min/mg] | fraction unbound at 4 h, 10 µM [2] | Experimental plasma concentration measured @2hr after final dose ([3]; 3 x 50 mg/kg oral) [µM] | Experimental plasma concentration measured @2hr after final dose ([3]; 3 x 100 mg/kg oral) [µM] | tolerance of high doses [3] | plasma levels ([3]; three doses at 100 mg kg^−1 given on two consecutive days) [µM] | autopsied livers ([3]; up to 300 mg kg^−1 per day) | apparent toxicity ([3]; up to 300 mg kg^−1 per day, cumulative dosing tolerance studies) |
| --- | --- | --- | --- | --- | --- | --- | --- | --- | --- | --- |
| CN(C)CCn1ccc2c(ccn2Cc2ccc(Cl)c(Cl)c2)c1=O [CTCB-405, 1-[(3,4-Dichlorophenyl)methyl]-5-[2-(dimethylamino)ethyl] pyrrolo[3,2-c]pyridin-4-one] | 56 | 20.8 | < 8.6 | 0.063 | 6.8 ± 2.1 | 9.8 ± 3.1 | well tolerated | 9.8 | appeared normal | no apparent toxicity |
| CN(C)CCn1ccc2c(ccn2Cc2ccc(Cl)c(Br)c2)c1=O [CTCB-470, 1-[(3-Bromo-4-chlorophenyl)methyl]-5-[2-(dimethylamino)ethyl] pyrrolo[3,2-c]pyridin-4-one] | 39 | 12.3 | 17 | 0.032 |  |  | well tolerated |  |  |  |
| CN(C)CCn1ccc2c(ccn2Cc2ccc(F)c(Br)c2)c1=O [CTCB-508, 1-[(3-Bromo-4-fluorophenyl)methyl]-5-[2-(dimethylamino)ethyl] pyrrolo[3,2-c]pyridin-4-one] | 111 | 33.4 | < 8.6 | 0.21 |  |  | well tolerated |  |  |  |

— article PMC7887271, “Fast acting allosteric phosphofructokinase inhibitors block trypanosome glycolysis and cure acute African trypanosomiasis in mice” (Nature Communications, 2021)
